The results in this text go back to patent publication US20260125378A2, “Heterocyclic Compounds” (BeOne Medicines I GmbH, priority 2023, published 2026).

Assay [1] concerns the target T1, Full length DGKα (D21-10BG, SignalChem) (Homo sapiens, UniProt P23743).
T1 construct: Full length DGKα (D21-10BG, SignalChem); purchased SignalChem D21-10BG
The assay can be described thus: Biochemical DGK IC50 assay (ADP-Glo, lipid micelle substrate), DGKα. The settings on record: 1 hour preincubation, 1 hour reaction, room temperature. The procedure, abridged: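 ADP-Glo luminescence quantified ADP produced after a 1 h room-temperature reaction of full-length DGKα on DAG/PS micelles, in HEPES buffer containing MgCl2, CaCl2, vanadate, BSA and Tween-20. IC50 values derive from activity inhibition over a compound concentration series.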

Assay [2] deals with T2, Full length DGKζ (in-house protein M1-V929) (Homo sapiens, UniProt Q13574).
T2 construct: His (N); TEV site (N); made in house; host or cells: Sf9 insect cells (Bac-to-Bac baculovirus)
T2 sequence (Q13574 1-929 isoform Q13574-4): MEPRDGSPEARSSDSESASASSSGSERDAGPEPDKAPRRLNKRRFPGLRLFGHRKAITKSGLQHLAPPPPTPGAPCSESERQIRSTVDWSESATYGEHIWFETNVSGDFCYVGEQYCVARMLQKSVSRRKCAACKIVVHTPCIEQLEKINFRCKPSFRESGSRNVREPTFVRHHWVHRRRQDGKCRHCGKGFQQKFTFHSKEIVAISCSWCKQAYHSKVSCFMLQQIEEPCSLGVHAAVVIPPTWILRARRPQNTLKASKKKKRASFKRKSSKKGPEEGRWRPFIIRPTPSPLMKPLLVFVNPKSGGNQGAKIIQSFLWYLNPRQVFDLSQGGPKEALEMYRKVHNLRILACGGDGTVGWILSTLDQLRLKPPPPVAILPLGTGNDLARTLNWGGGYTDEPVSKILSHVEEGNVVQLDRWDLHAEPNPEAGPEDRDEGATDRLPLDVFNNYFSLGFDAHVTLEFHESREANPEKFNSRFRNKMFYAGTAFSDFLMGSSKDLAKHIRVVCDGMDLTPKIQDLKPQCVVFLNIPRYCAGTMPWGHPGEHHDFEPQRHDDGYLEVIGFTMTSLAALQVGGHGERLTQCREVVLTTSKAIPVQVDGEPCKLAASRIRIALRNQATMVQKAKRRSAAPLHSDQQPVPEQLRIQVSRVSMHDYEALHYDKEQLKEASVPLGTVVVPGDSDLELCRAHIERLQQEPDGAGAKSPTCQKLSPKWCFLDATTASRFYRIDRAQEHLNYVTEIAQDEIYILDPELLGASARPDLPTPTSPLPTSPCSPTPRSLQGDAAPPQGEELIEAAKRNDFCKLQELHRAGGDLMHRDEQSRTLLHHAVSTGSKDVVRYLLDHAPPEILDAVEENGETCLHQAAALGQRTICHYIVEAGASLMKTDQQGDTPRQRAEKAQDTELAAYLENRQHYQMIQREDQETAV
The assay can be described thus: Biochemical DGK IC50 assay (ADP-Glo, lipid micelle substrate), DGKζ. The conditions noted are these: 1 hour preincubation, 1 hour reaction, room temperature. Summed up: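 Enzyme: full-length human DGKζ M1-V929, produced in baculovirus-infected Sf9 cells; substrate DAG/PS micelles. Buffer 50 mM HEPES, 10 mM MgCl2, 0.01 mM CaCl2, 0.1 mM Na3VO4.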
In general terms: ADP-Glo turns the ADP formed in a reaction into a luminescent signal.

T1 sequence (P23743 whole entry): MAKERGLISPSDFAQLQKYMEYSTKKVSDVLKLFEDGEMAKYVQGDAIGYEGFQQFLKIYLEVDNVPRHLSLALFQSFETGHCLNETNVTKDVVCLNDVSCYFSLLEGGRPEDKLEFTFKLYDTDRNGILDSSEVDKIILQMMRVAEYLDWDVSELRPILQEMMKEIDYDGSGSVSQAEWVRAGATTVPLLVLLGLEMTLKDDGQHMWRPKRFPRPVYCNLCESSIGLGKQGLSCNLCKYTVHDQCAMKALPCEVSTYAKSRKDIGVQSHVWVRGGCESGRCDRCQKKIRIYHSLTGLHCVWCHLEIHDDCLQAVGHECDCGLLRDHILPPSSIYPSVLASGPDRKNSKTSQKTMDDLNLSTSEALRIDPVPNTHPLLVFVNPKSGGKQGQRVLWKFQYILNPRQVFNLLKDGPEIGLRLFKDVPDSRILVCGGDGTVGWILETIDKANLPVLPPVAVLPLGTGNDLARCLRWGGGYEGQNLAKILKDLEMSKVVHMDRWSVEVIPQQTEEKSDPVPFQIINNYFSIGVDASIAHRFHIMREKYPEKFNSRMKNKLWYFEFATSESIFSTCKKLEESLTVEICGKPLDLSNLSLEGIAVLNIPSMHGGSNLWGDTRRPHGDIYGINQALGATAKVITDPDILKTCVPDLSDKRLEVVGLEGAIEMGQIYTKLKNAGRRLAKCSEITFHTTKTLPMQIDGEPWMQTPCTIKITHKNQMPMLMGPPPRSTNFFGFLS

Regarding `CC(c1cc2c(cc1F)OCC(C)(C)O2)N1C[C@H](C)N(c2nc(=O)n(C)c3c2nc(CC#N)n3C)C[C@H]1C` (single isomer, unassigned) [Compound A69b], the figures for the IC50 in assay [1] and in assay [2] were 6090 nM and 147 nM, respectively.

With `CCn1c(CC#N)nc2c(N3C[C@@H](C)N(C(C)c4ccc(OC)c(C(C)(F)F)c4)C[C@@H]3C)nc(=O)n(C)c21` (stereo partly drawn) [Compound A39, 2-(6-((2S,5R)-4-(1-(3-(1,1-difluoroethyl)-4-methoxyphenyl)ethyl)-2,5-dimethylpiperazin-1-yl)-9-ethyl-3-methyl-2-oxo-3,9-dihydro-2H-purin-8-yl)acetonitrile], the IC50 was greater than 150000 nM in assay [1] and 211 nM in assay [2].

Take `CCn1c(CC#N)nc2c(N3C[C@@H](C)N(C(C)c4cccc(C(F)(F)F)n4)C[C@@H]3C)nc(=O)n(C)c21` (single isomer, unassigned) [Compound A118b]: the figures for the IC50 in assay [1] and in assay [2] were 65600 nM and 103 nM, respectively.

Consider `CCn1c(CC#N)nc2c(N3C[C@@H](C)N(C(C)c4ccc5c(c4Cl)OC(C)(C)O5)C[C@@H]3C)nc(=O)n(C)c21` (single isomer, unassigned) [Compound A172a], for which the values for the IC50 in assay [1] and in assay [2] were 132000 nM and 170 nM, respectively.

Take `COc1cc(F)ccc1C(C)N1C[C@H](C)N(c2nc(=O)n(C)c3c2nc(CC#N)n3C)C[C@H]1C` (single isomer, unassigned) [Compound A24a]: the IC50 was greater than 10000 nM in assay [1] and 975 nM in assay [2].

As to `CCn1c(CC#N)nc2c(N3C[C@@H](C)N(C(C)c4ccc(=O)n(C)c4)C[C@@H]3C)nc(=O)n(C)c21` (stereo partly drawn) [Compound A106, 2-(6-((2S,5R)-2,5-dimethyl-4-(1-(1-methyl-6-oxo-1,6-dihydropyridin-3-yl)ethyl)piperazin-1-yl)-9-ethyl-3-methyl-2-oxo-3,9-dihydro-2H-purin-8-yl)acetonitrile], the IC50 is greater than 150000 nM in assay [1] and greater than 10000 nM in assay [2].

For `CC[C@H]1CN(C(C)c2ccc(C(F)(F)F)cc2)[C@H](CC)CN1c1nc(=O)n(C)c2c1nc(CC#N)n2C` (single isomer, unassigned) [Compound A149b], the IC50 in assay [1] amounted to 308 nM; in assay [2], 15 nM.

Regarding `Cc1ccc(C(C)N2C[C@H](C)N(c3c(F)c(=O)n(C)c4c3nc(CC#N)n4C)C[C@H]2C)c(C(F)(F)F)c1` (single isomer, unassigned) [Compound A15a], the results for the IC50 in assay [1] and in assay [2] were greater than 10000 nM and 1410 nM, respectively.

As for `CC(c1cccc(C(F)(F)F)c1)N1C[C@H](C)N(c2nc(=O)n(C)c3c2nc(CC#N)n3C)C[C@H]1C` (stereo partly drawn) [Compound A41, 2-(6-((2S,5R)-2,5-dimethyl-4-(1-(3-(trifluoromethyl)phenyl)ethyl)piperazin-1-yl)-3,9-dimethyl-2-oxo-3,9-dihydro-2H-purin-8-yl)acetonitrile], the IC50 in assay [1] came to 9700 nM; in assay [2], 16 nM.

In the case of `C=C(C)c1cc(C(C)N2C[C@H](C)N(c3nc(=O)n(C)c4c3nc(CC#N)n4CC)C[C@H]2C)ccc1F` (stereo partly drawn) [Compound A135, 2-(9-ethyl-6-((2S,5R)-4-(1-(4-fluoro-3-(prop-1-en-2-yl)phenyl)ethyl)-2,5-dimethylpiperazin-1-yl)-3-methyl-2-oxo-3,9-dihydro-2H-purin-8-yl)acetonitrile], the results for the IC50 in assay [1] and in assay [2] were greater than 150000 nM and 14 nM, respectively.

Regarding `CC(c1ccc2c(c1)OC(C)(C)O2)N1C[C@H](C)N(c2nc(=O)n(C)c3c2nc(CC#N)n3CC(F)F)C[C@H]1C` (stereo partly drawn) [Compound A166, 2-(9-(2,2-difluoroethyl)-6-((2S,5R)-4-(1-(2,2-dimethylbenzo[d][1,3]dioxol-5-yl)ethyl)-2,5-dimethylpiperazin-1-yl)-3-methyl-2-oxo-3,9-dihydro-2H-purin-8-yl)acetonitrile], the IC50 turned out to be 26100 nM in assay [1] and 14 nM in assay [2].

In the case of `COC[C@H]1CN(C(C)c2ccc(F)cc2C(F)(F)F)[C@H](C)CN1c1nc(=O)n(C)c2c1nc(CC#N)n2C` (stereo partly drawn) [Compound A10, 2-(6-((2R,5R)-4-(1-(4-fluoro-2-(trifluoromethyl)phenyl)ethyl)-2-(methoxymethyl)-5-methylpiperazin-1-yl)-3,9-dimethyl-2-oxo-3,9-dihydro-2H-purin-8-yl)acetonitrile], the IC50 is greater than 10000 nM in assay [1] and 25 nM in assay [2].

For `CCn1c(CC#N)nc2c(N3C[C@@H](C)N(C(C)c4ccc5c(c4)OC(C)(C)O5)C[C@@H]3C)nc(=O)n(C)c21` (single isomer, unassigned) [Compound A85a], the IC50 in assay [1] amounted to 148000 nM; in assay [2] it was 1250 nM.

For `CCn1c(CC#N)nc2c(N3C[C@@H](C)N(C(C)c4ccc(C)cc4C(F)(F)F)C[C@@H]3C)nc(=O)n(C)c21` (stereo partly drawn) [Compound A116, 2-(6-((2S,5R)-2,5-dimethyl-4-(1-(4-methyl-2-(trifluoromethyl)phenyl)ethyl)piperazin-1-yl)-9-ethyl-3-methyl-2-oxo-3,9-dihydro-2H-purin-8-yl)acetonitrile], the IC50 was greater than 150000 nM in assay [1] and 350 nM in assay [2].

For the compound `CC[C@@H]1CN(c2nc(=O)n(C)c3c2nc(CC#N)n3C)[C@@H](C)CN1C(C)c1ccc2ncc(C)nc2c1` (single isomer, unassigned) [Compound A50b], the results for the IC50 in assay [1] and in assay [2] were 13600 nM and 332 nM, respectively.

`CCn1c(CC#N)nc2c(N3C[C@@H](C)N(C(C)c4cccc(C(C)C)c4)C[C@@H]3C)nc(=O)n(C)c21` (mixture of isomers) [Compound A108, 2-(9-ethyl-6-((2S,5R)-4-(1-(3-isopropylphenyl)ethyl)-2,5-dimethylpiperazin-1-yl)-3-methyl-2-oxo-3,9-dihydro-2H-purin-8-yl)acetonitrile]: the IC50 in assay [1] is 95100 nM; in assay [2], 32 nM.

On to `CCn1c(CC#N)nc2c(N3C[C@@H](C)N(C(C)c4cccc(C)c4)C[C@@H]3C)nc(=O)n(C)c21` (stereo partly drawn) [Compound A45, 2-(6-((2S,5R)-2,5-dimethyl-4-(1-(m-tolyl)ethyl)piperazin-1-yl)-9-ethyl-3-methyl-2-oxo-3,9-dihydro-2H-purin-8-yl)acetonitrile], for which the half-maximal inhibitory concentration (IC50) amounted to 79300 nM in assay [1] and 410 nM in assay [2].

With `CCn1c(CC#N)nc2c(N3C[C@@H](C)N(C(C)c4cccc(C5(C)CC5)c4)C[C@@H]3C)nc(=O)n(C)c21` (stereo partly drawn) [Compound A126, 2-(6-((2S,5R)-2,5-dimethyl-4-(1-(3-(1-methylcyclopropyl)phenyl)ethyl)piperazin-1-yl)-9-ethyl-3-methyl-2-oxo-3,9-dihydro-2H-purin-8-yl)acetonitrile], the IC50 came out at 124000 nM in assay [1] and 24 nM in assay [2].

For `CCn1c(CC#N)nc2c(N3C[C@@H](C)N(C(C)c4cccc(C(C)(C)O)c4)C[C@@H]3C)nc(=O)n(C)c21` (stereo partly drawn) [Compound A111, 2-(9-ethyl-6-((2S,5R)-4-(1-(3-(2-hydroxypropan-2-yl)phenyl)ethyl)-2,5-dimethylpiperazin-1-yl)-3-methyl-2-oxo-3,9-dihydro-2H-purin-8-yl)acetonitrile], the IC50 in assay [1] is greater than 150000 nM; in assay [2], 771 nM.

With `CC[C@H]1CN(C(C)c2ccc3c(c2)OC(C)(C)CO3)[C@H](CC)CN1c1nc(=O)n(C)c2c1nc(CC#N)n2C` (single isomer, unassigned) [Compound A64a], the IC50 came out at 5280 nM in assay [1] and 0.88 nM in assay [2].

For `CCn1c(CC#N)nc2c(N3C[C@@H](C)N(C(C)c4ccc5c(c4F)OC(C)(C)O5)C[C@@H]3C)c(F)c(=O)n(C)c21` (single isomer, unassigned) [Compound A190a], the IC50 was greater than 150000 nM in assay [1] and 3 nM in assay [2].

A word on the IC50: it is the concentration needed to halve the response being measured. A high value points to lower potency.
